Data set [1] deals with small cell lung cancer cell lines. The experiment in a line: Effect of combination with ABT-737 on c-MYC, cyclin A, PARP and caspase 3. It counts as cell-based, human. The conditions noted are these: combined with ABT-737. The procedure: (§1) FIGS. 12A-12F illustrate the combination cytotoxic activity of D8 (i.e., narciclasine) and ABT-737 (a BCL-2 inhibitor) in two small cell lung cancer cell lines. The effect of the combination on c-MYC, pOCT4, OCT4, cyclin A, BCL-2 family of proteins, the cleavage of and caspase-3 and PARP were evaluated.
(§2) Next, Applicants sought to check the activity of narciclasine when combined with other active agents. Venetoclax is currently indicated for chronic lymphocytic leukemia (CLL) and small lymphocytic lymphoma (SLL) patients. […] Thus, Applicants combined narciclasine with ABT-737/ABT-263, pan BCL-2 inhibitors or venetoclax (also known as ABT-199, a BCL-2 inhibitor) to examine the effect of the combination.

The test system of the next data set is NCI-H1048 xenograft. In words: In vivo xenograft activity, NCI-H1048. Further details: species or system mice. The source says:
FIGS. 13A-13I show in vivo xenograft activity of M3814, a DNA-PK inhibitor, and ABT-263, a BCL-2 inhibitor, in mice carrying H1048, a human small cell lung cancer cell line.
FIGS. 14A-14I show in vivo xenograft activity of D8 (narciclasine), a DNA-PK interaction inhibitor, and ABT-199, a BCL-2 inhibitor, in mice carrying H1048, a human small cell lung cancer cell line.
In vivo xenograft activity was examined for narciclasine or M3814 in combination with ABT-263 or ABT-199 in two xenograft models of small cell lung cancer, NCI-H1048 and NCI-H847.

A further data set concerns SMS-LHN (LHN) cells. The experiment in a line: 13-cisRA response of SMS-LHN neuroblastoma cells. It counts as cell-based, human. The conditions noted are these: 5 μM, initial response. The source says:
(§3) FIGS. 4A and 4B provide data showing that protein expression of c-MYC and MYCN in patient-derived neuroblastoma cell lines established from clinical samples collected at diagnosis (Dx) (FIG. 4A) and progressive disease 5 (PD) (FIG. 4B). CHLA-20 and SK—N-BE(2) were used as the positive controls for c-MYC and MYCN. FIG. 4C1 and FIG. 4C2 show dot plots quantitating immunoblotting (IB) data in FIGS. 4A and 4B. The values were normalized in two ways by the intensity of specific proteins in CHLA-20 for c-MYC or SK—N-BE(2) for MYCN and GAPDH. […] Cells were treated with 5 μM 13-cisRA for 14 days. […] Triplicate samples of 10,000 events were collected as single cells for the analyses. […] Relative quantitation (2^−ΔΔCT) was used for the analyses of mRNA expression. […] LDH (cytosolic protein) and Lamin A/C (nuclear protein) were used as fractionation quality controls.
To determine whether increased c-MYC in PD cell lines might be due to 13-cisRA treatment, the SMS-LHN (LHN) human neuroblastoma cell line (MYCN expression without genomic amplification) was treated with a clinically achievable concentration of 13-cisRA (5 μM), following the clinical dosing schedule used in high-risk patients (2 wks on, 2 wks off, x 6 cycles).

The next data set deals with LHN-R cells. The experiment in a line: 13-cisRA response (neurite outgrowth, cell cycle) of resistant LHN-R cells. Format: cell-based, human.
Source text: as §3
MetLuc enzymatic activity was measured. CMV immediate early promoter (pCMV IE) was a positive control. […] Left: Locations of the four sets of amplicons (a, b, c, and d) used to detect ChIP-enriched DNA fragments in the MYC enhancer region shown relative to the transcription start site (arrow). Right: PCR results detecting enriched fragments from ChIP assays of each of the 4 amplicons using ChIP-grade OCT4-1 and OCT4-2 antibodies or control normal rabbit IgG antibody. […] Cells were imaged by confocal microscopy. Blue: DAPI stained nucleus, Green: Phalloidin.
FIGS. 6A-6G show OCT4 interacting proteins by protein identification (ID) and post-translational modification (PTM) and verification of the protein expression and the role of the interacting MK2 protein in 13-cisRA resistance. […] M: Marker, C: cytosolic, N: nuclear. For protein ID, the entire lanes were analyzed, and for PTM, the specific OCT4 band was subjected to mass spectrometry analyses. (Right) OCT4 protein sequence with PTM status identified by mass spectrometry. Underline: mass spectrometry coverage, Green: not phosphorylated or acetylated, Red: phosphorylated, acetylated, or undetermined. […] The direct interaction between OCT4 and MK2 is also confirmed by Ni-NTA pull down (Middle) or immunoprecipitation by FLAG (Right) using purified proteins. […] Cells stably transduced with non-targeting NT-shRNA or MAPKAPK2-shRNA were treated with vehicle control or 13-cisRA for 14 days. […] Cells stably transduced with non-targeting NT-shRNA or MAPKAPK2-shRNA were treated with vehicle control or 13-cisRA for 14 days. […] Cells stably transduced with non-targeting NT-shRNA (20±2% vs 18±3%, 15 p=0.17) or MAPKAPK2-shRNA (19±4% vs 5±1%, p<0.01) were treated with vehicle control or 13-cisRA for 14 days.
In LHN-R treated with 13-cisRA, mRNA and protein expression of c-MYC was increased while MYCN remained suppressed (FIGS. 4F and 4G).
Thus, Applicants focused on OCT4 and generated a stable clone of LHN-R with POU5F1 knockdown using a lentiviral vector system by transducing five different short hairpin RNA sequences (POU5F1-shRNA-1 to -5) to evaluate the effect of OCT4 on 13-cisRA resistance in neuroblastoma cells. POU5F1 knockdown decreased c-MYC and Cyclin A protein expression in LHN-R cells (FIG. 5G) relative to a non-targeted control shRNA (NT-shRNA).

The test system of data set [2] is LHN-R, CHLA-20, COG-N-289, COG-N-334, COG-N-415 cells. The experiment in a line: MK2 inhibitor effect on pOCT4, c-MYC, Cyclin A in neuroblastoma cell lines. It counts as cell-based, human. The procedure: FIGS. 8A-8H show higher pMK2 and pOCT4^S111 in PD with high c-MYC. […] CHLA-20 was used as the control for the two membranes. […] The values were normalized in two ways by the expression of specific proteins in CHLA-20 and GAPDH. […] The expression of pOCT4^S111, OCT4, c-MYC, and Cyclin A was evaluated in subcellular fractions. […] The cells transduced with a doxycycline-inducible system to exogenously express OCT4WT or OCT4 S111A mutant, treated with doxycycline (Dox) for 48h followed by cycloheximide (CHX) incubation for various times. The whole cell lysates were subjected to sill immunoblotting.
Thus, pMK2-mediated increased c-MYC expression is not limited to tumors exposed to 13-cisRA. When S111 residue of OCT4 was mutated pOCT4^S111 were not detected by immunoblotting (FIG. 8G). […] MK2 inhibition by a small molecule MK2 inhibitor results in decreased pOCT4.

In data set [3] the test system is small cell lung cancer cell lines. In words: Cytotoxicity in 16 small cell lung cancer cell lines. Format: cell-based, human. The source says: FIGS. 10A-10E show cytotoxicity of D8 (i.e., narciclasine) and several DNA-PK inhibitors (NU7441, M3814, CC-115, AZD7648) in 16 small cell lung cancer cell lines with high (black and gray bars) or low (white bars) c-MYC expression.
In this Example, Applicants examined the cytotoxic activity of narciclasine (i.e., D8) in comparison to DNA-PK inhibitors that are commercially available (including NU7441, M3814, CC-115, and AZD7648) in 16 small cell lung cancer cell lines. […] The IC50 values for narciclasine was less than 100 nM in all cell lines except NCI-H889.

Data set [4] relates to NCI-H82, NCI-H847, NCI-H889, NCI-H417 cells. The experiment in a line: c-MYC, pOCT4S93 and apoptosis markers in small cell lung cancer cell lines. It counts as cell-based, human. The conditions noted are these: 0.3 to 2.5 μM, compared to vehicle control. Here is the method: FIG. 11 illustrates the effect of narciclasine in c-MYC protein expression. Narciclasine's effect on pOCT4S93 and OCT4 as well as apoptosis (measured by caspase and PARP cleavage) are also assessed in four small cell lung cancer cell lines with high c-MYC expression.
Compared to vehicle control, narciclasine reduced c-MYC and pOCT4S93 and cleaved PARP and caspase 3 in four small cell lung cancer cell lines (NCI-H82, NCI-H847, NCI-H889, NCI-H417) at the concentration range between 0.3 and 2.5 μM. These experimental results, which are summarized in FIG. 11, indicate that narciclasine induces apoptosis as a cell death mechanism in small cell lung cancer cells.

The subject of another data set is NCI-H847 cell line. In words: Combination cytotoxicity with ABT-737 in NCI-H847. Format: cell-based, human. The settings on record: combined with ABT-737, narciclasine 10 and 20 nM. Here is the method: as §1, §2
In the next data set the test system is NCI-H1048 cell line. The experiment in a line: Combination cytotoxicity with ABT-737 in NCI-H1048. The settings on record: combined with ABT-737, narciclasine 10 and 20 nM. Format: cell-based, human. The procedure: as §1, §2
For another data set, the system named is NCI-H847 xenograft. The experiment in a line: In vivo xenograft activity, NCI-H847. The settings on record: NCI-H847 xenograft mice. The source says:
FIGS. […]
In NCI-H847 xenograft mice, narciclasine as a single agent extended the event-free survival of mice compared with vehicle control.

The test system of another data set is MOLM-14 and NB4 cells. In words: c-MYC expression and apoptosis in MOLM-14 and NB4. The settings on record: 24 hours, 100 to 200 nM. It counts as cell-based, human. The source says:
FIG. 17 provides data illustrating the effect of D8 (narciclasine) in the expression of c-MYC and apoptosis in two human acute myelogenous leukemia, MOLM-14 and NB4.
Of the six cell lines, two cell lines (MOLM-14 and NB4) were used to test the effect of narciclasine in c-MYC expression.

The mark [5] stands for this setting: single agent, compared with control, NCI-H1048 xenografted mice.

In the case of `COc1ccc([C@@H](O)c2cc(-c3ncnc4cc(N5CCOCC5)ccc34)c(F)cc2Cl)nn1` [M3814, alpha S-[2-chloro-4-fluoro-5-[7-(4-morpholinyl)-4-quinazolinyl]phenyl]-6-methoxy-3-pyridazinem ethano, reference compound], the “c-MYC downregulation effect and cyclin A suppression effect” value in [1] is “higher”. In addition, the event-free survival entry is recorded as “significantly extended” in the data set with NCI-H1048 xenograft (combined with ABT-263, NCI-H1048 xenografted mice) and “did not affect” in the data set on NCI-H1048 xenograft (setting [5]).

For `CC1=C(/C=C/C(C)=C/C=C/C(C)=C\C(=O)O)C(C)(C)CCC1` [13-cisRA, 13-cis-retinoic acid], the “response to 13-cisRA” value in the data set on SMS-LHN (LHN) cells was “arrested proliferation, neurite outgrowth and decreased MYCN protein”. The “neurite outgrowth and cell cycle arrest” value in the data set on LHN-R cells (LHN-R after six cycles, 10 days of 13-cisRA treatment) is “did not show”. Further, the “cell cycle analysis (FIG. 6G)” value turned out to be 5±1% with LHN-R cells (MAPKAPK2-shRNA LHN-R, 13-cisRA 14 days (vehicle 19±4%)) and 18±3% in the data set on LHN-R cells (NT-shRNA LHN-R, 13-cisRA 14 days (vehicle 20±2%)). Moreover, the S-phase content is on record as 28±5% with LHN-R cells (NT-shRNA-transduced LHN-R, 13-cisRA 14 days (vehicle 26±3%)) and 11±1% with LHN-R cells (POU5F1 knockdown LHN-R, 13-cisRA 14 days (vehicle 23±4%)).

Regarding `Cc1ccc(-c2ccc3c(ccc4sc5c(c43)NC[C@@H](C)NC5=O)n2)cn1` [PF3644022], the “pOCT4, OCT4S111, c-MYC and Cyclin A” value in data set [2] is “decreased”.

As usually defined, the IC50 is the concentration that gives 50% inhibition. Read a high IC50 as a need for much substance. For `O=C1N[C@@H]2C(=C[C@H](O)[C@@H](O)[C@H]2O)c2cc3c(c(O)c21)OCO3` [narciclasine], the IC50 in data set [3] (all of 16 small cell lung cancer cell lines except NCI-H889) is less than 100 nM. For the same molecule, the “potency in cytotoxicity relative to the agents tested” value in [3] (compared with NU7441, M3814, CC-115, AZD7648) was “highest potency”. Further, the “PARP and caspase 3 cleavage” value in data set [4] is recorded as “cleaved”; in the data set with MOLM-14 and NB4 cells, “observed”. Moreover, in data set [4], the “c-MYC and pOCT4S93 expression” value is on record as “reduced”. Moreover, the combination cytotoxic activity entry with NCI-H847 cell line and in the data set on NCI-H1048 cell line was “synergistic cytotoxic activity” throughout. In addition, the “c-MYC downregulation effect and cyclin A suppression effect” value in [1] is “higher”. The event-free survival entry in the data set with NCI-H1048 xenograft (combined with ABT-199, NCI-H1048 xenografted mice) is listed as “significantly extended”; in the data set on NCI-H1048 xenograft (setting [5]), “did not affect”; with NCI-H847 xenograft (combination with ABT-199, compared with the single agents), “significantly longer”; in the data set with NCI-H847 xenograft (single agent, compared with vehicle control), “extended”. In addition, the c-MYC expression result in the data set on MOLM-14 and NB4 cells is “substantially decreased”.

These data come from patent publication US12491191B2, “Inhibition of interaction between OCT4 and MAPKAPK2 or DNA-PKcs to regulate c-MYC in cancer” (Texas Tech University System, priority 2019, dated 2025).
